Columns and labels:
[1] = system: Human platelet aggregation caused by ADP; assay: Inhibition of ADP-induced platelet aggregation (Mimic-human PRP); format: cell-based; details: 20 μM ADP, human platelet concentrate diluted with PPP, absorption at 595 nm
Procedure, shortened: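 Human PRP diluted with PPP to 3–4×10^8 platelets/mL was preincubated 20 min at room temperature with compound (0.01–30 μM, DMSO), then stimulated with 20 μM ADP. Aggregation read as A595 increase at 3 min versus 0 and 20 μM ADP controls; Ki from sigmoidal non-linear regression.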

Human P2Y12 receptor = biological target: T1, Human P2Y12 receptor (Homo sapiens, UniProt Q9H244); assay: Human P2Y12 receptor cell membrane binding assay with [3H] 2-Mes-ADP; details: 1 nM [3H] 2-Mes-ADP, membranes of HEK cells expressing P2Y12 receptor; read-out: Binding activity (IC50)
T1 construct: expressed in transfected cells; host or cells: HEK cells
T1 sequence (Q9H244 whole entry): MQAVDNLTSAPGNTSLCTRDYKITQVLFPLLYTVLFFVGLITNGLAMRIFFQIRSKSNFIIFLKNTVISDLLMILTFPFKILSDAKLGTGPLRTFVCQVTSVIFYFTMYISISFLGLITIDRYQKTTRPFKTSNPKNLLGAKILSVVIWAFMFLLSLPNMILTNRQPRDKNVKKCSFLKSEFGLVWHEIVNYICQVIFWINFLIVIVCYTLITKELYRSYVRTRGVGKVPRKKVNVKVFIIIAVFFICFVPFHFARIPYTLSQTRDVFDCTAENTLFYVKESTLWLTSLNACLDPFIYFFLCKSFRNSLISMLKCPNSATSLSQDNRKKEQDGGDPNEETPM
Procedure, shortened: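 Membranes from HEK cells expressing human P2Y12 were incubated with compound and 1 nM [3H]2-MeS-ADP for 1 h at room temperature. Bound radioactivity was collected by GF/B filtration.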

Row | Structure (SMILES) | Ki [1] [nM] | IC50 (Human P2Y12 receptor) [nM]
1 | CCCc1cc2c(N3CCn4c(nnc4C(F)(F)F)C3)nc(NC3CCCC3)nc2s1 [Example 1-31, Cyclopentyl-[6-propyl-4-(3-trifluoromethyl-5,6-dihydro-8H-[1,2,4]triazolo[4,3-a]pyrazin-7-yl)-thieno[2,3-d]pyrimidin-2-yl]-amine] | 7600 | 110
2 | CCCc1cc2c(N3CCn4c(nnc4C(F)(F)F)C3)nc(N3CC[C@H](C(=O)OC(C)C)C3)nc2s1 [Example 1-58, (S)-1-[6-Propyl-4-(3-trifluoromethyl-5,6-dihydro-8H-[1,2,4]triazolo[4,3-a]pyrazin-7-yl)-thieno[2,3-d]pyrimidin-2-yl]-pyrrolidine-3-carboxylic acid isopropyl ester] | 700 | 190
3 | CCCc1cc2c(N3CCn4c(nnc4C(F)(F)F)C3)nc(Oc3ccc(OCC(=O)O)cc3)nc2s1 [Example 3-44, {4-[6-Propyl-4-(3-trifluoromethyl-5,6-dihydro-8H-[1,2,4]triazolo[4,3-a]pyrazin-7-yl)-thieno[2,3-d]pyrimidin-2-yloxy]-phenoxy}-acetic acid] | 500 | 180
4 | CCCc1cc2c(N3CCn4c(nnc4C(F)(F)F)C3)nc(-c3nc(-c4ccccc4)no3)nc2s1 [Example 4-28, 7-[2-(3-Phenyl-[1,2,4]oxadiazol-5-yl)-6-propyl-thieno[2,3-d]pyrimidin-4-yl)-3-trifluoromethyl-5,6,7,8-tetrahydro-[1,2,4]triazolo[4,3-a]pyrazine] | 670 | 330
5 | CC(C)Cc1cc2c(N3CCn4c(nnc4C(F)(F)F)C3)nc(N3CCNC(=O)C3)nc2s1 [Example 2-17, 4-[6-Isobutyl-4-(3-trifluoromethyl-5,6-dihydro-8H-[1,2,4]triazolo[4,3-a]pyrazin-7-yl)-thieno[2,3-d]pyrimidin-2-yl]-piperazin-2-one] | 440 | 367
6 | CCc1cc2c(N3CCn4c(nnc4C(F)(F)F)C3)nc(N3CCNCC3)nc2s1 [Example 2-7, 7-(6-Ethyl-2-piperazin-1-yl-thieno[2,3-d]pyrimidin-4-yl)-3-trifluoromethyl-5,6,7,8-tetrahydro-[1,2,4]triazolo[4,3-a]pyrazine] | 669 | 210
7 | CCCc1cc2c(N3CCn4c(nnc4C(F)(F)F)C3)nc(-c3nc(CC(=O)OCC)cs3)nc2s1 [Example 4-51, {2-[6-Propyl-4-(3-trifluoromethyl-5,6-dihydro-8H-[1,2,4]triazolo[4,3-a]pyrazin-7-yl)thieno[2,3-d]pyrimidin-2-yl]thiazol-4-yl}acetic acid ethyl ester] | 36 | 40
8 | CCc1cc2c(N3CCn4c(nnc4C(F)(F)F)C3)nc(N(CCO)CCO)nc2s1 [Example 2-6, 2-[[6-Ethyl-4-(3-trifluoromethyl-5,6-dihydro-8H-[1,2,4]triazolo[4,3-a]pyrazin-7-yl)-thieno[2,3-d]pyrimidin-2-yl]-(2-hydroxy-ethyl)-amino]-ethanol] | 715 | 835
9 | CCCc1cc2c(N3CCn4c(nnc4C(F)(F)F)C3)nc(Oc3ccccn3)nc2s1 [Example 3-36, 7-[6-Propyl-2-(pyridin-2-yloxy)-thieno[2,3-d]pyrimidin-4-yl]-3-trifluoromethyl-5,6,7,8-tetrahydro-[1,2,4]triazolo[4,3-a]pyrazine] | 940 | 260
10 | CCCc1cc2c(N3CCn4c(nnc4C(F)(F)F)C3)nc(C(=O)NCCC#N)nc2s1 [Example 4-11, 6-Propyl-4-(3-trifluoromethyl-5,6-dihydro-8H-[1,2,4]triazolo[4,3-a]pyrazin-7-yl)thieno[2,3-d]pyrimidine-2-carboxylic acid (2-cyanoethyl)amide] | 600 | 660
11 | CCCc1cc2c(N3CCn4c(nnc4C(F)(F)F)C3)nc(N3CCc4sccc4C3)nc2s1 [Example 1-79, 7-[2-(6,7-Dihydro-4H-thieno[3,2-c]pyridin-5-yl)-6-propyl-thieno[2,3-d]pyrimidin-4-yl]-3-trifluoromethyl-5,6,7,8-tetrahydro-[1,2,4]triazolo[4,3-a]pyrazine] | 1250 | 370
12 | CCCc1cc2c(N3CCn4c(nnc4C(F)(F)F)C3)nc(N3CC[C@H](C(=O)NCCN)C3)nc2s1 [Example 1-91, (S)-1-[6-Propyl-4-(3-trifluoromethyl-5,6-dihydro-8H-[1,2,4]triazolo[4,3-a]pyrazin-7-yl)-thieno[2,3-d]pyrimidin-2-yl]-pyrrolidine-3-carboxylic acid (2-amino-ethyl)-amide] | 140 | 190
13 | CCCc1cc2c(N3CCn4c(nnc4C(F)(F)F)C3)nc(OCCNC(=O)CS(C)(=O)=O)nc2s1 [Example 3-66, 2-Methanesulfonyl-N-{2-[6-propyl-4-(3-trifluoromethyl-5,6-dihydro-8H-[1,2,4]triazolo[4,3-a]pyrazin-7-yl)-thieno[2,3-d]pyrimidin-2-yloxy]-ethyl}-acetamide] | 70 | 150
14 | CCCc1cc2c(N3CCn4c(nnc4C(F)(F)F)C3)nc(C(=O)N3CCN(C)CC3)nc2s1 [Example 4-13, (4-Methyl-piperazin-1-yl)-[6-propyl-4-(3-trifluoromethyl-5,6-dihydro-8H-[1,2,4]triazolo[4,3-a]pyrazin-7-yl)thieno[2,3-d]pyrimidin-2-yl]methanone] | 1800 | 4920
15 | CCCc1cc2c(N3CCn4c(nnc4C(F)(F)F)C3)nc(-c3nc(CCO)no3)nc2s1 [Example 4-30, 2-{5-[6-Propyl-4-(3-trifluoromethyl-5,6-dihydro-8H-[1,2,4]triazolo[4,3-a]pyrazin-7-yl)thieno[2,3-d]pyrimidin-2-yl]-[1,2,4]oxadiazol-3-yl}ethanol] | 830 | 6500
16 | CCCc1cc2c(N3CCn4c(nnc4C(F)(F)F)C3)nc(N3CC[C@H](C(=O)NCCO)C3)nc2s1 [Example 1-90, (S)-1-[6-Propyl-4-(3-trifluoromethyl-5,6-dihydro-8H-[1,2,4]triazolo[4,3-a]pyrazin-7-yl)-thieno[2,3-d]pyrimidin-2-yl]-pyrrolidine-3-carboxylic acid (2-hydroxy-ethyl)-amide] | 50 | 110
17 | CCCc1cc2c(N3CCn4c(nnc4C(F)(F)F)C3)nc(NCCOCC)nc2s1 [Example 1-122, (2-Ethoxy-ethyl)-[6-propyl-4-(3-trifluoromethyl-5,6-dihydro-8H-[1,2,4]triazolo[4,3-a]pyrazin-7-yl)-thieno[2,3-d]pyrimidin-2-yl]-amine] | 467 | 220
18 | CCCc1cc2c(N3CCn4c(nnc4C(F)(F)F)C3)nc(N3CC[C@@H](O)C3)nc2s1 [Example 1-17, (R)-1-[6-Propyl-4-(3-trifluoromethyl-5,6-dihydro-8H-[1,2,4]triazolo[4,3-a]pyrazin-7-yl)-thieno[2,3-d]pyrimidin-2-yl]-pyrrolidin-3-ol] | 80 | 41
19 | CCCc1cc2c(N3CCn4c(nnc4C(F)(F)F)C3)nc(N3CCC(=NOCc4ccccc4)C3)nc2s1 [Example 1-21, 1-[6-Propyl-4-(3-trifluoromethyl-5,6-dihydro-8H-[1,2,4]triazolo[4,3-a]pyrazin-7-yl)-thieno[2,3-d]pyrimidin-2-yl]-pyrrolidin-3-one O-benzyloxime] | 220 | 452
